This is an account of results in ChEMBL document CHEMBL1201862, “PubChem BioAssay data set” (2004).

SMILES strings stand for the structures.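 Where inhibition never reached the appropriate level, the endpoint shown equals the highest concentration tested. Otherwise, values were interpolated linearly from a five-concentration, 48-hour dose response in 96-well plates. The concentration for 50% growth inhibition is given as GI50.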 The source made the active and inactive calls. No stated cut-off is given here; in the data, active = GI50 up to about 1.1 µM and inactive = higher.

Some test systems named below: RXF 393; HL-60; HT-29; UO-31; SW-620; OVCAR-3; UACC-257; HCT-116; LOX IMVI; OVCAR-4; NCI-H226; COLO 205; NCI-H460; HCT-15; PC-3; SF-268; RPMI-8226; 786-0; CAKI-1; DU-145.
Assay in all cases: growth of human tumour cells (NCI), 48 h

For the compound `COc1ccc2c(c1)/C(=C\c1c(C)nc3sc(C)cn13)C(=O)N2`, the GI50 was 1640 nM (inactive) in the assay on RXF 393; 292 nM (active) with HL-60; 363 nM (active) in the assay with HT-29; 3920 nM (inactive) in the assay with UO-31; 687 nM (active) in the assay on SW-620; 297 nM (active) in the assay on OVCAR-3. Also, the GI50 in the assay with UACC-257 is 1410 nM (inactive); in the assay with HCT-116 it was 498 nM (active); with LOX IMVI, 1870 nM (inactive); in the assay with OVCAR-4 it was 12700 nM (inactive); in the assay on NCI-H226 it was 841 nM (active); in the assay on COLO 205 it was 140 nM (active). Also, the GI50 with NCI-H460 is 205 nM (active); with HCT-15 it was 490 nM; in the assay on PC-3, 385 nM (active); in the assay with SF-268, 2350 nM (inactive); in the assay with RPMI-8226 it was 581 nM (active); in the assay on 786-0, 2320 nM (inactive). For the same compound, the GI50 in the assay with CAKI-1 was 2130 nM (inactive); with DU-145 it was 4830 nM (inactive).

Turning to `CCOC(=O)c1nc2ccc(C(F)(F)F)cc2[nH]c1=O`, the GI50 in the assay on RXF 393, with HL-60, with HT-29, in the assay with UO-31, in the assay with SW-620 and in the assay with OVCAR-3 was > 100000 nM (inactive) each time. For the same compound, the GI50 in the assay on UACC-257, in the assay with HCT-116, in the assay on LOX IMVI, with OVCAR-4, with NCI-H226 and with COLO 205 was > 100000 nM (inactive) throughout. The GI50 was > 100000 nM (inactive) in the assay with NCI-H460; above 100000 nM in the assay with HCT-15; > 100000 nM (inactive) in the assay with PC-3; > 100000 nM (inactive) with SF-268; > 100000 nM (inactive) with RPMI-8226; > 100000 nM (inactive) with 786-0. Moreover, the GI50 with CAKI-1 and with DU-145 was > 100000 nM (inactive) each time.

Consider `CC(=O)O[C@H]1C[C@@H](O[C@H]2[C@@H](O)C[C@H](O[C@H]3[C@@H](O)C[C@H](O[C@H]4CC[C@@]5(C)[C@H](CC[C@@H]6[C@@H]5C[C@@H](O)[C@]5(C)[C@@H](C7=CC(=O)OC7)CC[C@]65O)C4)O[C@@H]3C)O[C@@H]2C)O[C@H](C)[C@H]1O.CC(=O)O[C@H]1[C@@H](O)C[C@@H](O[C@H]2[C@@H](O)C[C@H](O[C@H]3[C@@H](O)C[C@H](O[C@H]4CC[C@@]5(C)[C@H](CC[C@@H]6[C@@H]5C[C@@H](O)[C@]5(C)[C@@H](C7=CC(=O)OC7)CC[C@]65O)C4)O[C@@H]3C)O[C@@H]2C)O[C@@H]1C`, for which the GI50 is 27.9 nM (active) in the assay on RXF 393; 38.2 nM (active) with HL-60; 27.8 nM (active) with HT-29; 48.6 nM (active) in the assay with UO-31; 43.5 nM (active) in the assay with SW-620; 11.9 nM (active) in the assay with OVCAR-3. In addition, the GI50 in the assay with UACC-257 is 54.1 nM (active); in the assay on HCT-116 it was 26.2 nM (active); in the assay with LOX IMVI it was 31.3 nM (active); with OVCAR-4 it was 15.3 nM (active); with NCI-H226, 50.8 nM (active); in the assay with COLO 205 it was 47.2 nM (active). Also, the GI50 with NCI-H460 is 14.8 nM (active); in the assay on HCT-15, 30.8 nM; in the assay with PC-3 it was 32.2 nM (active); with SF-268 it was 23.6 nM (active); with RPMI-8226 it was 39.5 nM (active); in the assay on 786-0, 22.3 nM (active). The GI50 was 30.8 nM (active) with CAKI-1 and 19.2 nM (active) in the assay with DU-145.
